In US4160026A (priority 1976, dated 1979):

How the values were obtained:
[1] = tested on: various bacteria; assay: Antibacterial activity with combined use of maltose or maltodextrin; assay type: cell-based; conditions: under the above-mentioned testing conditions
Protocol: These paper discs were placed on an upper plate layers of the known mycin-assay incubation medium comprising 0.5% peptone, 0.3% meat extract and 1.5% agar (pH 6) which contained the test microorganism to be incubated therein and which was laid over the lower layer of agar medium in the assaying dish. The incubation was made at a temperature of 37° C. overnight, and subsequently the diameter of the inhibition zones formed around the paper discs was measured. […] These tests were repeated in the same manner as above but with additional incorporation of 1.25 mg/cc of maltotriose into the upper plate layer of the mycin-assay incubation medium.

[2] = tested on: Sarcoma 180; assay: Solid tumor of Sarcoma 180, treatment after inoculation; assay type: in vivo, ICR-strain mice; conditions: 2 mg/kg, i.p., 5 days after inoculation
Protocol: In a separate experiment, male ICR-strain mice (five in each group with an average body weight of 20±2 g) were inoculated in the flank with 7×10^6 live tumor cells of Sarcoma 180 in 0.05 ml. After 24 hours, each group of mice was treated by intraperitoneal injection of 0.1 ml. of saline or sample dissolved in saline for 5 consecutive days. Seven days after the inoculation, all mice were sacrificed and the primary subcutaneous tumor excised and weighed.
In the above table, degree (%) of inhibition to the growth of tumor was calculated according to the following equation: [formula]

[3] = tested on: cell-mediated immunity; assay: Cell-mediated immunity, delayed hypersensitivity (picryl chloride) in Sarcoma 180-inoculated mice; assay type: in vivo, ICR-JCL strain mice; conditions: 75 mg/kg
Protocol: The tests were carried out by the following procedure: groups of ICR-JCL strain mice (six male mice per group, average body weight 31.9±3 g.) were inoculated with the ascites tumor "Sarcoma 180" (10^6 cells). 24 Hours after the inoculation of the tumor cells, each of the drug samples to be tested was subcutaneously administered and a known anti-tumor agent (cyclophosphamide) was intraperitoneally administered to the inoculated mice. Two days after the inoculation, an ethanolic solution of 5% picryl chloride was applied onto the hair-shaved abdomen of the mice to establish the sensitization. Subsequently, each drug sample under test was subcutaneously administered once a day for the successive four days. 4 Days after the inoculation, cyclophosphamide was again administered. Nine days after the inoculation, a solution of 1% picryl chloride in olive oil was challenged onto the two sides of both ears of the mice to establish the secondary sensitization. 24 Hours after the secondary sensitization, the degree (%) of increase in thickness of the ears was calculated for the test mice. The extent of the swelling which serves as a measure of stimulating cell-mediated immunity involved can be evaluated from the percentage increase in the ear thickness.

[4] = Solubility; assay type: physicochemical

SMILES | Solubility ([4]; in acetone) | Solubility ([4]; in ethanol) | Solubility ([4]; in methanol) | Solubility ([4]; in water) | also measured
OC[C@H]1O[C@H](O[C@H]2[C@H](O)[C@@H](O)[C@@H](O[C@H]3[C@H](O)[C@@H](O)C(O)O[C@@H]3CO)O[C@@H]2CO)[C@H](O)[C@@H](O)[C@@H]1O (stereo partly shown) [maltotriose] |  |  |  |  | Antibacterial activity of maltodextrins alone [1]: do not exhibit any antibacterial activity
CO[C@@]12[C@H](COC(N)=O)C3=C(C(=O)C(C)=C(N)C3=O)N1C[C@@H]1N[C@@H]12 [Mitomycin C, mitomycin C] |  |  |  |  | Degree (%) of inhibition to tumor growth [2]: 45%; Tumor weight [2]: 0.43 g
O=P1(N(CCCl)CCCl)NCCCO1 (stereo not shown) [Cyclophosphamide, N,N-bis (2-chloroethyl)tetrahydro-2H-1,3,2-oxazophosphorin-2-amine-2-oxide] |  |  |  |  | Degree of increase in ear thickness [3]: 4.0 ± 2.60 ×10^-3 cm; percentage increase ([3]; untreated = 100.0): 51.9%
OC[C@H]1O[C@H](O[C@H]2[C@H](O)[C@@H](O)[C@@H](O[C@H]3[C@H](O)[C@@H](O)[C@@H](O[C@H]4[C@H](O)[C@@H](O)[C@@H](O[C@H]5[C@H](O)[C@@H](O)[C@@H](O[C@H]6[C@H](O)[C@@H](O)C(O)O[C@@H]6CO)O[C@@H]5CO)O[C@@H]4CO)O[C@@H]3CO)O[C@@H]2CO)[C@H](O)[C@@H](O)[C@@H]1O (stereo partly shown) [maltohexaose] | not soluble | not soluble | sparingly soluble | readily soluble | 
OC[C@H]1O[C@H](O[C@H]2[C@H](O)[C@@H](O)[C@@H](O[C@H]3[C@H](O)[C@@H](O)[C@@H](O[C@H]4[C@H](O)[C@@H](O)[C@@H](O[C@H]5[C@H](O)[C@@H](O)C(O)O[C@@H]5CO)O[C@@H]4CO)O[C@@H]3CO)O[C@@H]2CO)[C@H](O)[C@@H](O)[C@@H]1O (stereo partly shown) [maltopentaose] | not soluble | not soluble | sparingly soluble | readily soluble | 
